From patent publication US4436726A, “N-Acylpeptide compound, processes for the preparation thereof and the pharmaceutical compositions” (Fujisawa Pharmaceutical Co., Ltd., priority 1980, dated 1984)

How the values were obtained:
[1] = test system: complement serum (guinea pig complement); assay: Anticomplementary activity (inhibition of hemolysis of sensitized erythrocytes); format: biochemical; settings: 50% hemolysis inhibition, 37° C.
Procedure: The anticomplementary activity of the test compound was measured according to the test method as described in Experimental Immunochemistry, edited by E. A. Kabat and M. M. Mayer, 2nd ed., Springfield, III: C. C. Thomas (1961) pages 133-240.
A mixture of 1 ml of a 5-fold diluted solution of a Veronal buffer solution containing 1.5×10^-4 M Ca^2+ and 5×10^-4 M Mg^2+ and isotonic gelatin, 1.5 ml of complement serum (guinea pig complement) diluted 400 times with a physiological saline solution and 0.05 ml of a solution of a test compound (in this case, a test compound was dissolved in a physiological saline solution) was incubated at 37° C. for 30 minutes. To the said mixture there was added 0.4 ml of sensitized erythrocytes suspension containing 5×10^8 cells/ml and said mixture was incubated at 37° C. further for 60 minutes. After the incubation, the mixture was centrifuged in 3,000 rpm at 4° C. for 10 minutes.
The results are expressed in Table 1 as the concentration of each drugs inhibiting the hemolysis activity by 50% (IC50).

[2] = test system: nephrotoxin-type nephritis; assay: Therapeutic effect on nephrotoxin-type nephritis (modified type of Masugi nephritis), proteinuria level; format: in vivo; settings: rats
Procedure: (i) Preparation of anti-rat kidney rabbit serum.
The kidneys of SD male rats weighing about 250-300 g were sufficiently perfused with 0.9% saline. The renal cortical tissue was homogenized with 0.9% saline using a Teflon homogenizer. 4 ml of the homogenate was then suspended into the same volume of Freund's complete adjuvant. 2 ml of the said mixture was given subcutaneously to male rabbits weighing about 3 kg. 4 weeks later, 2 ml of the mixture was given intramuscularly as a booster. At the 5th week, a blood sample was taken. The serum separated by centrifugation at 3,000 rpm for 30 minutes was inactivated by heating at 56° C. for 30 minutes and preserved by freezing until just before use.
(ii) Induction of experimental nephritis (modified type of Masugi nephritis)
Experimental nephritis was induced in groups of 5 male rats weighing about 150-200 g by a single intravenous injection of 1 ml of the anti-kidney serum obtained in the above procedures.
(iii) Evaluation of anti-nephritic effect of drugs.
Drugs were given to a group of 5 rats once a day for 5 consecutive days from the 2nd day before the injection of anti-kidney serum. Each drug was dissolved into 3% sodium bicarbonate solution and given intraperitoneally in a volume of 1 ml/rat. In addition to the above drug-treated nephritic group, the non-treated-nephritic group (control) was set in the experiment. The proteinuria level (total) amount excreted into the urine over a 12 hour period) was measured using turbidometry employing bovine serum albumin as a control by means of sulfosalicylic acid.

[3] = 10 mg/kg intraperitoneally once a day for 5 days
[4] = 30 mg/kg intraperitoneally once a day for 5 days

## CCCCCCCCCCCCCCCC(=O)OC(CCCCCCCCCCCCCCC)CC(=O)NCC(=O)N[C@@H](CO)C(=O)O (stereo partly drawn) [Example 2, N-[N-(3-hexadecanoyloxyoctadecanoyl)glycyl]-L-serine]
[1]
  Anticomplementary Activity (IC50): 0.03 to 0.04 µg/mL
[2]; [3]
  protein uria level, 1st day: 5.9 mg/12 hours
  protein uria level, 4th day: 3.7 mg/12 hours
  protein uria level, 7th day: 39.6 mg/12 hours
[2]; [4]
  protein uria level, 1st day: 3.5 mg/12 hours
  protein uria level, 4th day: 5.5 mg/12 hours
  protein uria level, 7th day: 16.5 mg/12 hours
